According to the OPERA property sets (Mansouri et al. 2018):
≈ marks a conversion by molar mass, not a printed value.

SMILES	solubility (25 °C)	solubility (20 °C)
Clc1ccc(-c2c(Cl)cc(Cl)cc2Cl)c(Cl)c1	21.9 nM (≈ 7.14 ng/mL)	–
Clc1cc(-c2cc(Cl)c(Cl)c(Cl)c2)cc(Cl)c1Cl	1.41 nM (≈ 0.51 ng/mL)	–
Clc1cc(Cl)cc(-c2c(Cl)c(Cl)c(Cl)c(Cl)c2Cl)c1	0.794 nM (≈ 0.314 ng/mL)	–
Clc1cc(Cl)c(Cl)c(-c2c(Cl)cc(Cl)c(Cl)c2Cl)c1	2.09 nM (≈ 0.826 ng/mL)	–
Clc1ccc(-c2c(Cl)c(Cl)c(Cl)c(Cl)c2Cl)c(Cl)c1	1.07 nM (≈ 0.423 ng/mL)	–
Clc1ccc(-c2ccccc2)cc1Cl	407 nM (≈ 90.9 ng/mL)	–
Clc1ccc(Cl)c(-c2c(Cl)c(Cl)c(Cl)c(Cl)c2Cl)c1Cl	0.794 nM (≈ 0.341 ng/mL)	–
Clc1cc(Cl)c(Cl)c(-c2ccccc2)c1Cl	56.2 nM (≈ 16.4 ng/mL)	–
Clc1cccc(-c2c(Cl)c(Cl)cc(Cl)c2Cl)c1	17.4 nM (≈ 5.67 ng/mL)	–
Clc1ccc(-c2c(Cl)cc(Cl)c(Cl)c2Cl)cc1	11.2 nM (≈ 3.66 ng/mL)	–
Clc1cc(-c2cc(Cl)c(Cl)c(Cl)c2Cl)cc(Cl)c1Cl	1.9 nM (≈ 0.753 ng/mL)	–
Clc1cc(Cl)c(-c2ccc(Cl)c(Cl)c2)c(Cl)c1	12.3 nM (≈ 4.02 ng/mL)	–
Clc1cc(Cl)c(-c2c(Cl)c(Cl)c(Cl)c(Cl)c2Cl)c(Cl)c1	0.331 nM (≈ 0.142 ng/mL)	–
Clc1cc(Cl)c(-c2c(Cl)cc(Cl)c(Cl)c2Cl)c(Cl)c1Cl	0.794 nM (≈ 0.341 ng/mL)	–
Clc1cc(Cl)c(-c2ccccc2Cl)c(Cl)c1	224 nM (≈ 65.4 ng/mL)	–
Clc1cc(Cl)c(-c2ccc(Cl)c(Cl)c2Cl)cc1Cl	–	4.16 nM (≈ 1.5 ng/mL)
Clc1cc(Cl)c(-c2c(Cl)c(Cl)cc(Cl)c2Cl)c(Cl)c1Cl	0.631 nM (≈ 0.271 ng/mL)	–
Clc1ccc(-c2c(Cl)cccc2Cl)cc1Cl	95.5 nM (≈ 27.9 ng/mL)	–
Clc1cccc(-c2ccc(Cl)c(Cl)c2Cl)c1	170 nM (≈ 49.6 ng/mL)	–
Clc1ccc(-c2cc(Cl)cc(Cl)c2Cl)c(Cl)c1	15.1 nM (≈ 4.94 ng/mL)	–

SMILES	solubility (25 °C)	solubility (20 °C)
Clc1ccc(-c2cc(Cl)c(Cl)c(Cl)c2Cl)c(Cl)c1	–	3.02 nM (≈ 1.09 ng/mL)
Clc1cc(Cl)cc(-c2c(Cl)c(Cl)cc(Cl)c2Cl)c1	5.38 nM (≈ 1.94 ng/mL)	–
Clc1ccc(Cl)c(-c2c(Cl)ccc(Cl)c2Cl)c1	–	64.6 nM (≈ 21.1 ng/mL)
Clc1cc(Cl)c(-c2c(Cl)c(Cl)c(Cl)c(Cl)c2Cl)c(Cl)c1Cl	0.0788 nM (≈ 0.0366 ng/mL)	–
Clc1cc(Cl)c(-c2c(Cl)c(Cl)cc(Cl)c2Cl)c(Cl)c1	3.24 nM (≈ 1.28 ng/mL)	–
Clc1cc(Cl)cc(-c2ccccc2Cl)c1	501 nM (≈ 129 ng/mL)	–
Clc1cc(Cl)c(-c2cc(Cl)c(Cl)cc2Cl)c(Cl)c1	7.59 nM (≈ 2.74 ng/mL)	–
Clc1ccc(-c2ccccc2Cl)c(Cl)c1	323 nM (≈ 83.3 ng/mL)	–
Clc1ccc(-c2cc(Cl)c(Cl)cc2Cl)c(Cl)c1	11.2 nM (≈ 3.66 ng/mL)	–
Clc1cc(Cl)c(-c2cc(Cl)c(Cl)c(Cl)c2)cc1Cl	6.17 nM (≈ 2.23 ng/mL)	–
Clc1ccc(-c2ccccc2)c(Cl)c1Cl	661 nM (≈ 170 ng/mL)	–
Clc1cc(Cl)c(Cl)c(-c2cc(Cl)c(Cl)cc2Cl)c1	2.63 nM (≈ 0.949 ng/mL)	–
Clc1cc(-c2c(Cl)cc(Cl)c(Cl)c2Cl)cc(Cl)c1Cl	0.794 nM (≈ 0.314 ng/mL)	–
Clc1cc(Cl)c(-c2c(Cl)c(Cl)c(Cl)c(Cl)c2Cl)cc1Cl	0.316 nM (≈ 0.136 ng/mL)	–
Clc1cc(Cl)c(-c2cc(Cl)ccc2Cl)c(Cl)c1	33.9 nM (≈ 11.1 ng/mL)	–
Clc1ccc(-c2cc(Cl)cc(Cl)c2Cl)cc1	170 nM (≈ 49.6 ng/mL)	–
Clc1cc(Cl)cc(-c2c(Cl)ccc(Cl)c2Cl)c1	11.2 nM (≈ 3.66 ng/mL)	–
Clc1cccc(-c2cc(Cl)c(Cl)cc2Cl)c1	74.1 nM (≈ 21.7 ng/mL)	–
Clc1cc(-c2c(Cl)c(Cl)cc(Cl)c2Cl)cc(Cl)c1Cl	0.794 nM (≈ 0.314 ng/mL)	–
Clc1ccc(-c2c(Cl)ccc(Cl)c2Cl)c(Cl)c1	67.7 nM (≈ 22.1 ng/mL)	–

More lines, main results first:

solubility (25 °C)	SMILES	solubility (20 °C)
2.57 nM (≈ 1.02 ng/mL)	Clc1cc(-c2c(Cl)ccc(Cl)c2Cl)c(Cl)c(Cl)c1Cl	–
3.31 nM (≈ 1.19 ng/mL)	Clc1cccc(-c2c(Cl)cc(Cl)c(Cl)c2Cl)c1Cl	–
9.77 nM (≈ 3.53 ng/mL)	Clc1ccc(Cl)c(-c2c(Cl)cc(Cl)c(Cl)c2Cl)c1	–
5.37 nM (≈ 1.94 ng/mL)	Clc1cc(-c2c(Cl)ccc(Cl)c2Cl)cc(Cl)c1Cl	–
224 nM (≈ 65.4 ng/mL)	Clc1ccc(-c2c(Cl)cccc2Cl)c(Cl)c1	–
39.8 nM (≈ 13 ng/mL)	Clc1cc(Cl)c(-c2cccc(Cl)c2Cl)c(Cl)c1	–
2.09 nM (≈ 0.826 ng/mL)	Clc1cc(Cl)c(-c2cc(Cl)c(Cl)c(Cl)c2Cl)c(Cl)c1	–
7.08 nM (≈ 2.8 ng/mL)	Clc1cc(Cl)c(-c2c(Cl)ccc(Cl)c2Cl)c(Cl)c1Cl	–
5.76 nM (≈ 2.08 ng/mL)	Clc1cc(Cl)c(-c2ccc(Cl)c(Cl)c2Cl)c(Cl)c1	–
11.5 nM (≈ 4.54 ng/mL)	Clc1ccc(Cl)c(-c2c(Cl)c(Cl)cc(Cl)c2Cl)c1Cl	–
166 nM (≈ 54.2 ng/mL)	Clc1ccc(-c2c(Cl)cccc2Cl)c(Cl)c1Cl	–
3.8 nM (≈ 1.37 ng/mL)	Clc1cccc(-c2cc(Cl)c(Cl)c(Cl)c2Cl)c1Cl	–
3.8 nM (≈ 1.5 ng/mL)	Clc1ccc(-c2c(Cl)c(Cl)cc(Cl)c2Cl)c(Cl)c1Cl	–
39.8 nM (≈ 13 ng/mL)	Clc1ccccc1-c1c(Cl)c(Cl)cc(Cl)c1Cl	–
0.38 nM (≈ 0.163 ng/mL)	Clc1cc(-c2c(Cl)cc(Cl)c(Cl)c2Cl)c(Cl)c(Cl)c1Cl	–
501 nM (≈ 146 ng/mL)	Clc1cccc(-c2c(Cl)cccc2Cl)c1Cl	–
0.513 nM (≈ 0.22 ng/mL)	Clc1cc(-c2c(Cl)c(Cl)cc(Cl)c2Cl)c(Cl)c(Cl)c1Cl	–
7.41 nM (≈ 2.68 ng/mL)	Clc1cc(-c2c(Cl)cccc2Cl)c(Cl)c(Cl)c1Cl	–
